Source: patent publication US4163016A, “16-Substituted prostaglandins” (Hoffmann-La Roche Inc., priority 1977, dated 1979)

Experiments:
[1] = test system: conscious rat with acute gastric fistula (gastric secretion); assay: Anti-secretory activity in the conscious rat with acute gastric fistula; format: in vivo, rat (fasted female rats); conditions: 16 μg/Kg i.v., N 3 (A), 2 (B)
Experimental: That the compounds of this invention are active as anti-secretory and anti-ulcerogenic agents can be seen by administering the following compounds: Compound A= nat 11R-methyl-16R-fluoro-15R-hydroxy-9-oxo-prost-(Z)-5-enoic acid. Compound b= nat 11R-methyl-16R-fluoro-9,15-dioxo-prost-(Z)-5-enoic acid to rats by the following test:
The compounds were tested as gastric secretory depressants in the unanesthetized rat with acute gastric fistula. […] On the day of the experiment, water infusion through the stomach was begun for a period of 60 minutes prior to drug administration. During this baseline period, the pH of the secretory flow was about 1.5 for each animal. Individual samples were collected at 10-minute intervals during this baseline period to monitor the pH. The compound dissolved in saline was administered intravenously (i.v.), 16 μg/Kg i.v., after this baseline period and samples were continuously collected for 60 minutes. The samples of gastric contents were subsequently assayed for pH, volume, total acid content (μ Eq/ml) and total acid output for 10 minutes (μ Eq/10 minutes).

[2] = test system: DOCA-Na Hypertensive Rat Model; assay: Oral activity on systolic blood pressure in the DOCA-Na hypertensive rat model; format: in vivo, rat (Charles River male rats); conditions: N 6
Experimental: That the compounds of this invention are active as blood pressure lowering agents can be seen from the administration of nat. 11R-methyl-16R-fluoro-9,15-dioxoprosta-(Z)-5-(E)-13-dienoic acid to rats by the following test:
Charles River male rats weighing 170-210 grams are used in the present study. DOCA-Na hypertension is induced in these rats by unilateral nephrectomy followed by subcutaneous implantation of a 25 mg deoxycorticosterone acetate pellet. Animals are placed in individual cages and receive 0.9% by weight sodium chloride aqueous solution and rat chow diet ad libitum. Two weeks are allowed to elapse from the time of surgery for development of hypertension, i.e. systolic blood pressure above 150 mmHg. Systolic blood pressure is measured indirectly from the tail of unanesthetized rats (restrained in holders heated for 5-10 minutes at 37°-38° C.) using a pneumatic pulse transducer (piezoelectric crystal and occluding cuff). The transducer and occluding cuff are coupled to a two-channel recorder. Control readings are taken prior to drug and at 1, 3, 6, 24, 48 and 72 hours post administration of drug. All drugs are prepared fresh in a mixture of tris(hydroxymethyl)amino methane in 95% ethanol (5% wt/V) and orally administered to rats. The placebo that was used was the mixture tris(hydroxymethyl)amino methane in ethanol without drug.

[3] = 10 min after administration, rounded figures
[4] = 10 min after administration, rounded, 0 = no effect
[5] = 10 min after administration, rounded, 0 = no effect, or increase in the hydrogen ion concentration
[6] = 20 min after administration, rounded figures
[7] = 20 min after administration, rounded, 0 = no effect
[8] = 30 min after administration, rounded figures
[9] = 40 min after administration, rounded figures
[10] = 50 min after administration, rounded figures
[11] = 60 min after administration, rounded figures
[12] = 60 min after administration, rounded, 0 = no effect

| SMILES | Acid Output, % Inhibition (calculated from μ Eq/10 min period of total acid output) [1, 3] [%] | pH, % Increment over baseline [1, 3] [%] | Volume, % Inhibition [1, 4] [%] | Acid Conc., % Inhibition (calculated from μ Eq/ml of total acid concentration) [1, 5] [%] | Acid Conc., % Inhibition (calculated from μ Eq/ml of total acid concentration) [1, 6] [%] | Acid Output, % Inhibition (calculated from μ Eq/10 min period of total acid output) [1, 6] [%] | pH, % Increment over baseline [1, 6] [%] | Volume, % Inhibition [1, 7] [%] | Acid Conc., % Inhibition (calculated from μ Eq/ml of total acid concentration) [1, 8] [%] | Acid Output, % Inhibition (calculated from μ Eq/10 min period of total acid output) [1, 8] [%] | Volume, % Inhibition [1, 8] [%] | pH, % Increment over baseline [1, 8] [%] | Acid Conc., % Inhibition (calculated from μ Eq/ml of total acid concentration) [1, 9] [%] | Acid Output, % Inhibition (calculated from μ Eq/10 min period of total acid output) [1, 9] [%] | Volume, % Inhibition [1, 9] [%] | pH, % Increment over baseline [1, 9] [%] | Acid Conc., % Inhibition (calculated from μ Eq/ml of total acid concentration) [1, 10] [%] | Acid Output, % Inhibition (calculated from μ Eq/10 min period of total acid output) [1, 10] [%] | Volume, % Inhibition [1, 10] [%] | pH, % Increment over baseline [1, 10] [%] | further results |
| --- | --- | --- | --- | --- | --- | --- | --- | --- | --- | --- | --- | --- | --- | --- | --- | --- | --- | --- | --- | --- | --- |
| CCCC[C@@H](F)[C@H](O)CC[C@H]1[C@H](C)CC(=O)[C@@H]1C/C=C\CCCC(=O)O [Compound A, nat 11R-methyl-16R-fluoro-15R-hydroxy-9-oxo-prost-(Z)-5-enoic acid] | 4 | 5 | 0 | 0 | 22 | 17 | 6 | 0 | 20 | 33 | 58 | 4 | 23 | 26 | 21 | 5 | 38 | 43 | 9 | 9 | Acid Conc., % Inhibition (calculated from μ Eq/ml of total acid concentration) [1, 11]: 22%; Acid Output, % Inhibition (calculated from μ Eq/10 min period of total acid output) [1, 11]: 25%; pH, % Increment over baseline [1, 11]: 9%; Volume, % Inhibition [1, 12]: 0% |
| CCCC[C@@H](F)C(=O)CC[C@H]1[C@H](C)CC(=O)[C@@H]1C/C=C\CCCC(=O)O [Compound B, nat 11R-methyl-16R-fluoro-9,15-dioxo-prost-(Z)-5-enoic acid] | 40 | 2 | 9 | 33 | 6 | 22 | 2 | 30 | 11 | 15 | 4 | 2 | 2 | 14 | 11 | 2 | 15 | 20 | 16 | 2 | Acid Conc., % Inhibition (calculated from μ Eq/ml of total acid concentration) [1, 11]: 19%; Acid Output, % Inhibition (calculated from μ Eq/10 min period of total acid output) [1, 11]: 48%; pH, % Increment over baseline [1, 11]: 5%; Volume, % Inhibition [1, 12]: 35% |
| CCCC[C@@H](F)C(=O)/C=C/[C@H]1[C@H](C)CC(=O)[C@@H]1C/C=C\CCCC(=O)O [nat 11R-methyl-16R-fluoro-9,15-dioxoprosta-5(Z),13(E)-dienoic acid] |  |  |  |  |  |  |  |  |  |  |  |  |  |  |  |  |  |  |  |  | Systolic Blood Pressure ([2]; 1.0 mg/kg p.o., 1 h): 200±6 mmHg; Systolic Blood Pressure ([2]; 1.0 mg/kg p.o., 3 h): 205±6 mmHg; Systolic Blood Pressure ([2]; 1.0 mg/kg p.o., 6 h): 203±8 mmHg; Systolic Blood Pressure ([2]; 1.0 mg/kg p.o., 24 h): 199±6 mmHg; Systolic Blood Pressure ([2]; 1.0 mg/kg p.o., time 0 h (control reading prior to drug)): 196±6 mmHg; Systolic Blood Pressure ([2]; 5.0 mg/kg p.o., 1 h, * p<.05): 175±2 mmHg; Systolic Blood Pressure ([2]; 5.0 mg/kg p.o., 3 h, * p<.05): 167±4 mmHg; Systolic Blood Pressure ([2]; 5.0 mg/kg p.o., 6 h, * p<.05): 166±3 mmHg; Systolic Blood Pressure ([2]; 5.0 mg/kg p.o., 24 h, * p<.05): 163±4 mmHg; Systolic Blood Pressure ([2]; 5.0 mg/kg p.o., 48 h, * p<.05): 171±7 mmHg; Systolic Blood Pressure ([2]; 5.0 mg/kg p.o., 72 h): 193±6 mmHg; Systolic Blood Pressure ([2]; 5.0 mg/kg p.o., time 0 h (control reading prior to drug)): 197±3 mmHg |
